# Experiments:
# [1] = test system: zebrafish embryo; settings: in vivo, 24 h, 1 mM
# Experimental: The toxicity study is carried out over 72 hours. The embryos are treated at 25 hpf with the doses used for the test of chemical compounds of each of the compounds, in a 96-well plate, in a final volume of 100 μl of the embryonic growth medium. The embryos are incubated 72 h at 28° C. The medium is changed every 24 hours. The survival rate of embryos and the appearance of developmental defects are analyzed daily.
# At the same time, we analyzed the toxicity of althiazide after balancing with a solution containing althiazide at concentrations of 1 μM, 10 μM, 100 μM, 1000 μM for 24, 48 and 72 hours. The toxicity study was based on analysis of the percentage viability of the embryos after treatment. At concentrations of 1 μM, 10 μM and 100 μM, althiazide causes no toxicity even after 72 hours of treatment. A 50% toxicity is observed after treatment for 24 hours, the althiazide at the concentration of 1 mM.
# [2] = test system: VIMENTIN; assay: q-RT-PCR expression of EMT markers in MDA-MB-231 cells under hypoxia: VIMENTIN; assay type: cell-based, human; settings: althiazide 100 μM, hypoxic conditions (1% O2), vs control, FIG. 11
# Experimental: The cell cultures are carried out on human breast cancer epithelial cell lines MDA-MB-231 (HTB-26™), resulting from metastases present in a pleural effusion of a patient with a mammary adenocarcinoma. This line is used as a triple negative cancer cell model (no expression of ER-type nuclear estrogen receptors, nuclear progesterone receptors or overexpression of the oncogene encoding HER2 protein (Human Epidermal Growth factor Receptor-2).
# The cells were cultured in DMEM medium (Eurobio, Fance) supplemented with 10% fetal calf serum (FCS) (Eurobio, Fance) at 37° C., 5% CO2. The medium was changed every 3 days.
# The cells were placed in a controlled atmosphere at 1% oxygen 24 hours before the application of the different treatments.
# The expression of the mRNAs is measured by the q-RT-PCR method. The cells were seeded at the density of 500,000 cells/well in 6-well plates. After 24 hours at 37° C., 5% CO2 and 1% O2, the medium was renewed and added the various treatments. RNA was isolated using TRI Reagent® (sigma), assayed and retro-transcribed into complementary DNA using the PrimeScript RT Reagent Kit (Takara). The expression levels of the mRNA of the genes of interest were determined by quantitative PCR (LightCycler® 480 Instrument II) with the primers listed in Table 2: […]
# The results are calculated using the Delta Delta Ct (Δ ΔCt) method.
# [3] = Solubilization of althiazide and enantiomers without DMSO; assay type: physicochemical; settings: no DMSO
# Experimental: Solubilization of althiazide and enantiomers was achieved by solubilization in a solvent of 95% 1M Tris pH 10.8 and supplemented with 5% pure ethanol.
# Althiazide and enantiomers are resuspended at a concentration of 2 mg/ml. Each of the solutions is vortexed for 30 seconds and then placed in an ultrasound bath for a sonication of 5min; this operation is repeated once. The dissolution is complete despite the absence of DMSO.
# The solubilization of althiazide and enantiomers was also obtained by solubilization in a solution consisting of a mixture of 3.7% of NaHCO3, 0.2M and 21% of Na2CO3 0.2M at pH 10.6 and supplemented with pure water. Althiazide and enantiomers are resuspended at a concentration of 2.5 mg/ml. Each of the solutions is vortexed for 30 seconds and then placed in an ultrasound bath for a sonication of 1 min. The dissolution is complete despite the absence of DMSO.
smiles,measurement,setting,value
C=CCSCC1Nc2cc(Cl)c(S(N)(=O)=O)cc2S(=O)(=O)N1 (racemic) [althiazide],toxicity (percentage viability of the embryos),[1],50%
same,change in expression of VIMENTIN,[2],−22%
same,dissolution,"[3]; 2 mg/ml in 95% 1M Tris pH 10.8 + 5% pure ethanol, vortex and sonication",complete
same,dissolution,[3]; 2.5 mg/ml in 3.7% NaHCO3 0.2M + 21% Na2CO3 0.2M at pH 10.6 and pure water,complete

# Source: patent publication US20230137849A1, “USE OF A COMPOUND OF THE DIURETICS CLASS FOR TREATING CANCER” (AZELEAD, priority 2017, published 2023)
